According to the NIST ThermoML archive (doi:10.1021/je900998f):
Numbers after ± are expanded uncertainties.

Conditions: Liquid; for mass density / viscosity: 298.15 K; for mass density: 101.33 kPa, Vibrating tube method

| mass density [kg/m3] | viscosity [mPa·s] | viscosity (Capillary tube (Ostwald / Ubbelohde) method) [mPa·s] | vapor or sublimation pressure (351.44 K, Ebulliometric method (Recirculating still)) [kPa] | Structure (SMILES) |
| --- | --- | --- | --- | --- |
| 1222.26 ± 0.42 | 161.4 ± 8.4 | – | – | CCOS(=O)(=O)[O-].CC[n+]1cccc(C)c1 [1-ethyl-3-methylpyridinium ethylsulfate] |
| 785.46 ± 0.12 | – | 1.082 ± 0.073 | 101.33 ± 0.1 | CCO [ethanol] |
